# Test results taken from PubChem BioAssay (NCI).
#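 Cultured in 96-well plates, cells were exposed to test compound for 48 hours across five concentrations. TGI: total growth inhibition.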
# Experiments:
# Assay in all cases: growth of human tumour cells (NCI), 48 h
# SW-620 colon = system: SW-620 colon
# HS 578T breast = system: HS 578T breast
# OVCAR-3 ovarian = system: OVCAR-3 ovarian
# OVCAR-4 ovarian = system: OVCAR-4 ovarian
# SNB-19 CNS = system: SNB-19 CNS
# 786-0 renal = system: 786-0 renal
# UACC-62 melanoma = system: UACC-62 melanoma
# SK-MEL-2 melanoma = system: SK-MEL-2 melanoma
# T-47D breast = system: T-47D breast
# MDA-N = system: MDA-N
# SN12C renal = system: SN12C renal
# SK-OV-3 ovarian = system: SK-OV-3 ovarian
# MOLT-4 leukemia = system: MOLT-4 leukemia
# MALME-3M melanoma = system: MALME-3M melanoma
# UACC-257 melanoma = system: UACC-257 melanoma
# PC-3 prostate = system: PC-3 prostate
# M14 melanoma = system: M14 melanoma
# IGROV1 ovarian = system: IGROV1 ovarian
# HCC-2998 colon = system: HCC-2998 colon
# SR leukemia = system: SR leukemia
# MDA-MB-435 = system: MDA-MB-435
# EKVX NSCLC = system: EKVX NSCLC
# CAKI-1 renal = system: CAKI-1 renal
# SNB-75 CNS = system: SNB-75 CNS
# NCI/ADR-RES ovarian = system: NCI/ADR-RES ovarian
# HCT-116 colon = system: HCT-116 colon
# UO-31 renal = system: UO-31 renal
# OVCAR-5 ovarian = system: OVCAR-5 ovarian
# BT-549 breast = system: BT-549 breast
# CCRF-CEM leukemia = system: CCRF-CEM leukemia
# A549 NSCLC = system: A549 NSCLC
# COLO 205 colon = system: COLO 205 colon
# U251 CNS = system: U251 CNS
# ACHN renal = system: ACHN renal
# SF-295 CNS = system: SF-295 CNS
# MDA-MB-231 breast = system: MDA-MB-231 breast
# NCI-H460 lung = system: NCI-H460 lung
# HCT-15 colon = system: HCT-15 colon
# NCI-H23 lung = system: NCI-H23 lung
# NCI-H226 lung = system: NCI-H226 lung
# MCF7 breast = system: MCF7 breast
# RPMI-8226 leukemia = system: RPMI-8226 leukemia
# DU-145 prostate = system: DU-145 prostate
# SK-MEL-5 melanoma = system: SK-MEL-5 melanoma
# A498 renal = system: A498 renal
# KM12 colon = system: KM12 colon
# HT29 colon = system: HT29 colon
# SF-268 CNS = system: SF-268 CNS
# OVCAR-8 ovarian = system: OVCAR-8 ovarian
# HOP-62 NSCLC = system: HOP-62 NSCLC
# RXF 393 renal = system: RXF 393 renal
compound,measurement,setting,value
COc1cccc(-c2nc3ccccc3c(=O)[nH]2)c1OC,TGI,SW-620 colon,> 100 µM
same,TGI,HS 578T breast,> 100 µM
same,TGI,OVCAR-3 ovarian,> 100 µM
same,TGI,OVCAR-4 ovarian,> 100 µM
same,TGI,SNB-19 CNS,> 100 µM
same,TGI,786-0 renal,> 100 µM
same,TGI,UACC-62 melanoma,> 100 µM
same,TGI,SK-MEL-2 melanoma,> 100 µM
same,TGI,T-47D breast,> 100 µM
same,TGI,MDA-N,> 100 µM
same,TGI,SN12C renal,> 100 µM
same,TGI,SK-OV-3 ovarian,> 100 µM
same,TGI,MOLT-4 leukemia,> 100 µM
same,TGI,MALME-3M melanoma,> 100 µM
same,TGI,UACC-257 melanoma,> 100 µM
same,TGI,PC-3 prostate,> 100 µM
same,TGI,M14 melanoma,> 100 µM
same,TGI,IGROV1 ovarian,> 100 µM
same,TGI,HCC-2998 colon,> 100 µM
same,TGI,SR leukemia,> 100 µM
same,TGI,MDA-MB-435,> 100 µM
same,TGI,EKVX NSCLC,> 100 µM
same,TGI,CAKI-1 renal,> 100 µM
same,TGI,SNB-75 CNS,> 100 µM
same,TGI,NCI/ADR-RES ovarian,> 100 µM
same,TGI,HCT-116 colon,> 100 µM
same,TGI,UO-31 renal,> 100 µM
same,TGI,OVCAR-5 ovarian,> 100 µM
same,TGI,BT-549 breast,> 100 µM
same,TGI,CCRF-CEM leukemia,> 100 µM
same,TGI,A549 NSCLC,> 100 µM
same,TGI,COLO 205 colon,> 100 µM
same,TGI,U251 CNS,> 100 µM
same,TGI,ACHN renal,> 100 µM
same,TGI,SF-295 CNS,> 100 µM
same,TGI,MDA-MB-231 breast,> 100 µM
same,TGI,NCI-H460 lung,> 100 µM
same,TGI,HCT-15 colon,> 100 µM
same,TGI,NCI-H23 lung,> 100 µM
same,TGI,NCI-H226 lung,> 100 µM
same,TGI,MCF7 breast,> 100 µM
same,TGI,RPMI-8226 leukemia,49.4 µM
same,TGI,DU-145 prostate,> 100 µM
same,TGI,SK-MEL-5 melanoma,> 100 µM
same,TGI,A498 renal,> 100 µM
same,TGI,KM12 colon,> 100 µM
same,TGI,HT29 colon,> 100 µM
same,TGI,SF-268 CNS,> 100 µM
same,TGI,OVCAR-8 ovarian,> 100 µM
same,TGI,HOP-62 NSCLC,> 100 µM
same,TGI,RXF 393 renal,> 100 µM
